Measurements as given in patent US5880146A, “Inhibition of IL-12-induced IFN-γ synthesis by specific bis-phenol compounds as a method of immune modulation” (Fuji ImmunoPharmaceuticals Corporation, priority 1995, dated 1999).
“Also recorded” adds a separate entry of the source.

Experiments:
[1] = system: IL-12 induction of IFN-γ in PHA-activated human PBMC; assay: Screening assay for compounds which inhibit IL-12 induction of IFN-γ (ELISA); type: cell-based; conditions: 5 μg/ml, IL-2 25 U/ml + IL-12 0.5 ng/ml, 48 hr, single test, read-out: % INH of IFNγ
Experimental: Human peripheral blood monocytes (PBMC) were obtained from commercial sources as a leukophoresis from a healthy volunteer and were purified by centrifugation on a Ficoll-Hypaque (Pharmacia) gradient (1700 rpm for 20 min). The "buffy" coat containing the PBMC was diluted with serum-free culture medium (SF-RPMI) to a volume of 50 ml and collected by centrifugation at 1500 rpm for 5 min. Cells were resuspended in cell culture medium containing 10% fetal bovine serum (RPMI-10) and phytohemaglutinin (PHA - 10 μg/ml) at a density of 5×10^6 cells/ml and were cultured for 3 days at 37° C. in a humidified CO2 incubator. The PHA-activated cells were collected by centrifugation, washed three times with an equal volume of SF-RPMI and resuspended in fresh RPMI-10 (1×10^6 cells /ml). Aliquots (100 μl) were dispensed into the wells of multiple 96-well plates to give a final cell number of 10^5 per well. Test compounds, dissolved in dimethyl sulfoxide (DMSO) at 1 mg/ml, were first diluted in culture medium to an intermediate concentration of 20 μg/ml and then were added (50 μwell) to a specific well of the plate for each compound. Stimulation medium (50 μl/well) containing 10% serum, IL-2 and IL-12 was added to final concentrations of 25 U/ml and 0.5 ng/ml, respectively. Control wells receive no IL-2 or IL-12 (negative control) or received both interleukins but no test compound (positive control). The plates were incubated for 48 hr at 37° C. in a CO2 incubator at which time aliquots (20 μl) were removed for analysis of IFN-γ concentration by ELISA. A quantitative ELISA was developed by coating 96-well plates with an mouse monoclonal antibody against human IFN-γ, 1 μg/ml in phosphate buffered saline (PBS) (Pestka Biological Laboratories), overnight at 4° C. Unbound antibody was washed off by washing three times with PBS. Non-specific antibody binding was blocked with a solution of 1% bovine serum albumin (BSA) and 1% goat serum in PBS (150 μl/well) which was incubated for 2 hr at 37° C. After washing the blocked plates four times with PBS, test samples and dilutions of the IFN-γ standard are added in a final volume of 100 μl/well. Following an overnight incubation at 4° C., the plates are washed four times with PBS, and a polyclonal rabbit antiserum against human IFN-γ (1/10000 dilution--Petska Biological Laboratories) is added. After an additional incubation for 1 hr at 37° C. and four washes with PBS, a polyclonal donkey anti-rabbit detecting antibody, conjugated to horseradish peroxidase (1/700 dilution--Petska Biological Laboratories) is added for 1 hr at 37° C. The plates are then washed four times with PBS and 100 μl of K-blue substrate E(ILISA Technologies, Neogen Corp.) is added until the color in the wells containing the standard curve is sufficiently developed, at which time 100 μl of "Red-stop" solution (ELISA Technologies) is added. The absorbance of the solution within each well of the plate is then read at 650 nm using an ELISA plate reader (Dynatech MR7000). The amount of IFN-γ is calculated by comparing the optical density of the test sample with a standard curve derived from the dilutions of the control IFN-y. The amount of IFN-γ that is induced in the presence of both IL-2 and IL-12 generally ranges from 1200-2000 pg/ml while the amount produced in the absence of IL-12 is generally less than 50 pg/ml. Experimental data are shown in Table 2 which discloses a) the percent inhibition of IFNγ production, relative to a […], when the cells have been treated with a bis-compound at a final concentration of 5 μg/ml of the listed bis-compound (%INH or IFNγ) and b) the percent of cells which are viable after the treatment with 5 μg/ml of the various bis-compounds, determined by adding MTS to the media (% Viability). MTS is a chemical chromophore that is metabolized in the mitochondria of viable cells to produce a color which increases in intensity in proportion to the numbers of viable cells. […]

[2] = Cell viability (MTS) after treatment with bis-compound; type: cell-based; conditions: human, pha-activated pbmc, 5 μg/ml
Experimental: Human peripheral blood monocytes (PBMC) were obtained from commercial sources as a leukophoresis from a healthy volunteer and were purified by centrifugation on a Ficoll-Hypaque (Pharmacia) gradient (1700 rpm for 20 min). The "buffy" coat containing the PBMC was diluted with serum-free culture medium (SF-RPMI) to a volume of 50 ml and collected by centrifugation at 1500 rpm for 5 min. Cells were resuspended in cell culture medium containing 10% fetal bovine serum (RPMI-10) and phytohemaglutinin (PHA - 10 μg/ml) at a density of 5×10^6 cells/ml and were cultured for 3 days at 37° C. in a humidified CO2 incubator. The PHA-activated cells were collected by centrifugation, washed three times with an equal volume of SF-RPMI and resuspended in fresh RPMI-10 (1×10^6 cells /ml). Aliquots (100 μl) were dispensed into the wells of multiple 96-well plates to give a final cell number of 10^5 per well. Test compounds, dissolved in dimethyl sulfoxide (DMSO) at 1 mg/ml, were first diluted in culture medium to an intermediate concentration of 20 μg/ml and then were added (50 μwell) to a specific well of the plate for each compound. Stimulation medium (50 μl/well) containing 10% serum, IL-2 and IL-12 was added to final concentrations of 25 U/ml and 0.5 ng/ml, respectively. Control wells receive no IL-2 or IL-12 (negative control) or received both interleukins but no test compound (positive control). The plates were incubated for 48 hr at 37° C. in a CO2 incubator at which time aliquots (20 μl) were removed for analysis of IFN-γ concentration by ELISA. A quantitative ELISA was developed by coating 96-well plates with an mouse monoclonal antibody against human IFN-γ, 1 μg/ml in phosphate buffered saline (PBS) (Pestka Biological Laboratories), overnight at 4° C. Unbound antibody was washed off by washing three times with PBS. Non-specific antibody binding was blocked with a solution of 1% bovine serum albumin (BSA) and 1% goat serum in PBS (150 μl/well) which was incubated for 2 hr at 37° C. After washing the blocked plates four times with PBS, test samples and dilutions of the IFN-γ standard are added in a final volume of 100 μl/well. Following an overnight incubation at 4° C., the plates are washed four times with PBS, and a polyclonal rabbit antiserum against human IFN-γ (1/10000 dilution--Petska Biological Laboratories) is added. After an additional incubation for 1 hr at 37° C. and four washes with PBS, a polyclonal donkey anti-rabbit detecting antibody, conjugated to horseradish peroxidase (1/700 dilution--Petska Biological Laboratories) is added for 1 hr at 37° C. The plates are then washed four times with PBS and 100 μl of K-blue substrate E(ILISA Technologies, Neogen Corp.) is added until the color in the wells containing the standard curve is sufficiently developed, at which time 100 μl of "Red-stop" solution (ELISA Technologies) is added. The absorbance of the solution within each well of the plate is then read at 650 nm using an ELISA plate reader (Dynatech MR7000). The amount of IFN-γ is calculated by comparing the optical density of the test sample with a standard curve derived from the dilutions of the control IFN-y. […] MTS is a chemical chromophore that is metabolized in the mitochondria of viable cells to produce a color which increases in intensity in proportion to the numbers of viable cells. The absorbance of the cell culture can be compared to control cultures in order to determine the percent viability.

[3] = Toxicity of bis-compounds after single systemic dose; type: in vivo; conditions: mouse, in vivo, 20% DMSO, 16% cremaphor, single dose
mice = assay: as above; type: in vivo; conditions: 20% DMSO, 16% cremaphor

SMILES	inhibition at 5 µg/mL [1] [%]	viability [2] [%]	other results
Cc1cc(Cl)cc(Cc2cc(Cl)cc(C)c2O)c1O [Compound 8296]	103	37	
Cc1cc(C)c(O)c(C(CCCCCCC(C)C)c2cc(C)cc(C)c2O)c1 [Compound 8302]	95	100	LD50 ([3]; iv, conc. sol. 10 mg/ml): > 150 mg/kg; LD50 ([3]; iv, conc. sol. 15 mg/ml): 200 mg/kg; Results (Dead/Alive) (mice; 100 mg/kg IV, 10 mg/ml): Alive; Results (Dead/Alive) (mice; 150 mg/kg IV, 10 mg/ml): Alive; Results (Dead/Alive) (mice; 200 mg/kg IV, 15 mg/ml): Alive 1; also recorded: Dead 1
Cc1cc(C)c(O)c(Cc2cc(C)cc(C)c2O)c1 [Compound 51850]	77	97	LD50 ([3]; iv, conc. sol. 10 mg/ml): > 150 mg/kg; Results (Dead/Alive) (mice; 100 mg/kg IV, 10 mg/ml): Alive; Results (Dead/Alive) (mice; 150 mg/kg IV, 10 mg/ml): Alive
CCCC(c1cc(C)cc(C)c1O)c1cc(C)cc(C)c1O [Compound 51851]	86	107	
CC(C)(C)c1cc2c(cc1O)C(C)(C)c1cc(O)c(C(C)(C)C)cc1O2 [Compound 53433]	97	26	
CC(C)(C)CC(C)(C)c1cc2c(cc1O)C(C)(C)c1cc(O)c(C(C)(C)CC(C)(C)C)cc1O2 [Compound 53437]	74	85	
Cc1cc(C(c2cc(C)c(O)c(C)c2)c2ccc(O)c(O)c2)cc(C)c1O [Compound 54004]	-37	99	
Cc1cc(C(C)c2cc(C)cc(C(C)(C)C)c2O)c(O)c(C(C)(C)C)c1 [Compound 54005]	96	30	
Cc1cc(O)c(C(C)C)cc1C(c1ccccc1)c1cc(C(C)C)c(O)cc1C [Compound 54007]	95	26	
CCC(c1cc(C)cc(C(C)(C)C)c1O)c1cc(C)cc(C(C)(C)C)c1O [Compound 54008]	91	69	
Cc1cc(C(c2ccc(Cl)cc2)c2cc(C)c(O)c(C)c2)cc(C)c1O [Compound 54042]	28	102	
Cc1cc(C(C)(C)c2cc(C)c(O)c(C)c2)cc(C)c1O [Compound 54046]		95	LD50 ([3]; IV, conc. sol. 10 mg/ml): > 150 mg/kg; Results (Dead/Alive) (mice; 100 mg/kg IV, 10 mg/ml): Alive; Results (Dead/Alive) (mice; 150 mg/kg IV, 10 mg/ml): Alive
Cc1cc(C2(c3ccc(O)c(C)c3)CCCCC2)ccc1O [Compound 54048]	68	79	
Cc1cc(C(c2ccc(C(=O)O)cc2)c2cc(C)c(O)c(C)c2)cc(C)c1O [Compound 54050]	63	86	
Cc1cc(C(c2ccc([N+](=O)[O-])cc2)c2cc(C)c(O)c(C(C)(C)C)c2)cc(C(C)(C)C)c1O [Compound 54053]	93	33	
Cc1cc(C(C)c2cc(C)c(O)c(C(C)(C)C)c2)cc(C(C)(C)C)c1O [Compound 54054]	98	27	
CC(C)(C)c1cc(C(c2ccc(C(=O)O)cc2)c2cc(C(C)(C)C)c(O)c(C(C)(C)C)c2)cc(C(C)(C)C)c1O [Compound 54055]	83	88	
CCC(C)(c1cc(C)c(O)c(C)c1)c1cc(C)c(O)c(C)c1 [Compound 54056]	84	87	
Cc1cc(C(c2ccccc2)c2cc(C)c(O)c(C(C)(C)C)c2)cc(C(C)(C)C)c1O [Compound 54058]	88	86	
CCCCCCC(C)(c1ccc(O)cc1)c1ccc(O)c(C)c1 (stereo not drawn) [Compound 54059]	64	88	
CCCC(C)(c1ccc(O)cc1)c1ccc(O)c(C)c1 (stereo not drawn) [Compound 54063]		93	
CCCCCCC(C)(c1ccc(O)c(C)c1)c1ccc(O)c(C)c1 [Compound 54094]		25	
CCCC(CCC)(c1ccc(O)cc1)c1ccc(O)c(C)c1 [Compound 54099]		93	
CCC(c1cc(C)c(O)c(C(C)C)c1)c1cc(C)c(O)c(C(C)C)c1 [Compound 54109]	93	33	
Cc1cc(C(c2ccc(C(C)C)cc2)c2cc(C)c(O)c(C)c2)cc(C)c1O [Compound 54114]	65	96	
Cc1cc(C(c2ccc(C(=O)O)cc2)c2cc(C)c(O)c(C(C)(C)C)c2)cc(C(C)(C)C)c1O [Compound 54346]	91	84	
CCC(c1cc(C)c(O)c(C)c1)c1cc(C)c(O)c(C)c1 [Compound 54471]	89	83	
CCC(c1cc(C)c(O)c(C(C)(C)C)c1)c1cc(C)c(O)c(C(C)(C)C)c1 [Compound 54472]	98	26	
